Assay results from patent publication US20260315507A1, “COMBINATION OF VITAMINS AND OLIGOSACCHARIDES FOR ENHANCING BONE GROWTH AND/OR BONE STRENGTH” (SOCIÉTÉ DES PRODUITS NESTLÉ S.A., priority 2023, published 2026).

How the values were obtained:
[1] = tested on: MC3T3-E1 subclone 4 cells; experiment: Osteoblast alkaline phosphatase (ALP) activity in pre-osteoblastic cell line; type: cell-based; details: 7 days of differentiation, without ascorbic acid; 3 μM menaquinone-7, 1 nM 1α,25-dihydroxyvitamin D3 or 100 nM all-trans-retinoic acid; FIG. 1A
Source text: The pre-osteoblastic cell line MC3T3-E1 subclone 4 (CRL-2593) was purchased from ATCC (Manassas; Virginia, USA). Cells were maintained in growth medium (GM) composed of ascorbic acid-free αMEM (ThermoFisher Scientific), supplemented with 10% fetal calf serum (FCS, ThermoFisher Scientific) and 1% penicillin/streptomycin. All culture media were refreshed every 2-3 days. Cells were passaged with trypsin/EDTA solution at less than 80% confluence. To induce differentiation into osteoblasts, cells were seeded at 5×10^4 cells/cm^2 and grown to confluency in GM for 24 h. Then, the medium was switched to differentiation medium (DM) composed of GM supplemented with 10 mM β-glycerophosphate and treatment solutions of interest. Ascorbic acid 50 μg/ml was also added to the DM depending on the experiment. […]
After 7 days of differentiation, cells were then collected for alkaline phosphatase (ALP) activity measurement as described previously with minor modifications. […] Enzymatic reaction was monitored at 405 nm after 4-Nitrophenyl phosphate disodium salt hexahydrate addition. Michaelis-Menten kinetics were evaluated at 30° C. for 30 min. […] The activity value was normalized by protein content measured via the Pierce BCA Protein Assay Kit (ThermoFisher Scientific) according to the manufacturer's instructions.

[2] = tested on: osteocalcin mRNA in MC3T3-E1 subclone 4 cells; experiment: Osteocalcin mRNA levels (qPCR) in pre-osteoblastic cell line; type: cell-based; details: 21 days of differentiation, without ascorbic acid; 3 μM menaquinone-7, 1 nM 1α,25-dihydroxyvitamin D3 or 100 nM all-trans-retinoic acid; FIG. 1B
Source text: The pre-osteoblastic cell line MC3T3-E1 subclone 4 (CRL-2593) was purchased from ATCC (Manassas; Virginia, USA). Cells were maintained in growth medium (GM) composed of ascorbic acid-free αMEM (ThermoFisher Scientific), supplemented with 10% fetal calf serum (FCS, ThermoFisher Scientific) and 1% penicillin/streptomycin. All culture media were refreshed every 2-3 days. Cells were passaged with trypsin/EDTA solution at less than 80% confluence. To induce differentiation into osteoblasts, cells were seeded at 5×10^4 cells/cm^2 and grown to confluency in GM for 24 h. Then, the medium was switched to differentiation medium (DM) composed of GM supplemented with 10 mM β-glycerophosphate and treatment solutions of interest. Ascorbic acid 50 μg/ml was also added to the DM depending on the experiment.
MC3T3-E1 subclone 4 cells were differentiated for 21 days (in DM without ascorbic acid except for the positive control) or 28 days (in DM containing ascorbic acid). Cells were then collected for gene expression analysis. […] RNA concentrations were measured using the DropSense96 (TRINEAN, Gentbrugge, Belgium).
cDNAs were synthetized using High-Capacity cDNA Reverse Transcription Kit (AppliedBiosystems; Waltham, Massachusetts, USA) according to the manufacturer's instructions. […] The relative gene expression was evaluated via the 2^-ΔCt method.

Row | SMILES | effect on ALP activity (marker of osteoblast differentiation) [1] | effect on osteocalcin expression (mRNA) [2]
1 | CC(C)=CCC/C(C)=C/CC/C(C)=C/CC/C(C)=C/CC/C(C)=C/CC/C(C)=C/CC/C(C)=C/CC1=C(C)C(=O)c2ccccc2C1=O [vitamin K2, menaquinone-7] | no significant effect | –
2 | C=C1/C(=C\C=C2/CCC[C@]3(C)[C@@H]([C@H](C)CCCC(C)(C)O)CC[C@@H]23)C[C@@H](O)C[C@@H]1O [vitamin D, 1α,25-Dihydroxyvitamin D3] | – | no significant effect
3 | CC1=C(/C=C/C(C)=C/C=C/C(C)=C/C(=O)O)C(C)(C)CCC1 [vitamin A, all-trans-retinoic acid] | – | no significant effect
